{"source": "paper PMC3544981", "about": "(Pharmacology, biochemistry, and behavior, 2012)", "key": {"[1]": {"biological_target": "α4β2*-nAChR (Mus musculus, UniProt O70174+Q9ERK7)", "sequence (O70174 31-629)": "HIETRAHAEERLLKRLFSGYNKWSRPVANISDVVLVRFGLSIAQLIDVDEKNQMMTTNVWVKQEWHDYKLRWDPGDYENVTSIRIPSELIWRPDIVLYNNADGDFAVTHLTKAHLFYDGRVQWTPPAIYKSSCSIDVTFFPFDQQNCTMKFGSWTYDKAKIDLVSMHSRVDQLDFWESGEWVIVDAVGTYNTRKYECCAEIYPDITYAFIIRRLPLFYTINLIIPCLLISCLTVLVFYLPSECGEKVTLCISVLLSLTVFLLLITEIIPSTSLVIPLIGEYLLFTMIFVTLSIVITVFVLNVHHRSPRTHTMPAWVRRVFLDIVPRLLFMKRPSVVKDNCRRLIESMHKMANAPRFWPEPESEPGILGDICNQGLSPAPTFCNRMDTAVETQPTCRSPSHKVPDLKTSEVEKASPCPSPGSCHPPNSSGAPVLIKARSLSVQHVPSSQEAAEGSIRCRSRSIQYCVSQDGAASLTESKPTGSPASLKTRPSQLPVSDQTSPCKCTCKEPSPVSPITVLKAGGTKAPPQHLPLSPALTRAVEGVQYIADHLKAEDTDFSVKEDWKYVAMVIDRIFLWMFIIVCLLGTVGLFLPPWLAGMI", "sequence (Q9ERK7 26-501)": "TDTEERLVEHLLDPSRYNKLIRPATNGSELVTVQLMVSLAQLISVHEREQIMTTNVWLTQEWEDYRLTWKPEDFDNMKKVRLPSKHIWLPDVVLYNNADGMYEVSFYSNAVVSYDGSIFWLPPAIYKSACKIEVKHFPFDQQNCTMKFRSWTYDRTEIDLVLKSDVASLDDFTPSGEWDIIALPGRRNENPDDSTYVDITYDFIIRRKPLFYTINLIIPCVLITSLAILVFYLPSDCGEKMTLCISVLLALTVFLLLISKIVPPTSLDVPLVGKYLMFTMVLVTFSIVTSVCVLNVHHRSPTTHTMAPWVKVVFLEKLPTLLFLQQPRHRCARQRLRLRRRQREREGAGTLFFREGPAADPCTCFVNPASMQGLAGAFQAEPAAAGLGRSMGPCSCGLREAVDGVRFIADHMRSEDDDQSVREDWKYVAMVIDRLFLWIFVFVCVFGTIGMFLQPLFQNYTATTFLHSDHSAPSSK", "assay_type": "biochemical"}, "[2]": {"biological_target": "T1, α4β2*-nAChRs (Mus musculus, UniProt O70174+Q9ERK7, V287L)", "T1 sequence (O70174 31-629)": "as the sequence (O70174 31-629) above", "T1 sequence (Q9ERK7 26-501 V287L)": "as the sequence (Q9ERK7 26-501) above, with V262L counted along it"}, "[3]": {"biological_target": "T2, α4β2*-nAChRs (Mus musculus, UniProt O70174+Q9ERK7)"}, "[4]": {"test_system": "α4S248F mutation", "conditions": "2007, cited from earlier work"}, "[5]": {"biological_target": "T1, α4β2*-nAChRs", "assay_type": "biochemical"}, "[6]": {"biological_target": "T2, α4β2*-nAChRs", "assay_type": "biochemical"}, "[7]": {"biological_target": "α6β2*-nAChR (Mus musculus, UniProt Q9ERK7+Q9R0W9, V287L)", "sequence (Q9R0W9 31-494)": "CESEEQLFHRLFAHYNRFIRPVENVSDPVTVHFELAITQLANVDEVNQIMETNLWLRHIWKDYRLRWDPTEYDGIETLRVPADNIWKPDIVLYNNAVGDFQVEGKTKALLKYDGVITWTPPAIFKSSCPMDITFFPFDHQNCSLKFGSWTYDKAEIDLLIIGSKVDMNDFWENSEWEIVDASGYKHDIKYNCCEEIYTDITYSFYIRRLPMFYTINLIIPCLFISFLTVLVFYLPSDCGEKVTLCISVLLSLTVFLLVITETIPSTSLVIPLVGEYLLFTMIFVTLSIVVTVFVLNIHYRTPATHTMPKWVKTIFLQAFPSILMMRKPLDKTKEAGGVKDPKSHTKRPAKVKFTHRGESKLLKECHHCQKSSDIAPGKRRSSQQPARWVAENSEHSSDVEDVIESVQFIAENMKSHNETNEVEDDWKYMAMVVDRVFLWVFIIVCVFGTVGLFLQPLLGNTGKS", "sequence (Q9ERK7 26-501 V287L)": "as the sequence (Q9ERK7 26-501) above, with V262L counted along it", "conditions": "striatum, MT mice"}, "[8]": {"biological_target": "α6β2*-nAChR (Mus musculus, UniProt Q9ERK7+Q9R0W9)"}, "[9]": {"biological_target": "α4β2*-nAChR binding sites", "assay": "[125I]-Epibatidine binding to membrane fragments, cortex", "design": "species or system mouse", "conditions": "read-out: Kd for [125I]-epibatidine, HT mice"}, "[10]": {"biological_target": "T3, α4β2*-nAChR binding sites (Mus musculus, UniProt O70174+Q9ERK7, V287L)", "T3 sequence (O70174 31-629)": "as the sequence (O70174 31-629) above", "T3 sequence (Q9ERK7 26-501 V287L)": "as the sequence (Q9ERK7 26-501) above, with V262L counted along it", "assay": "[125I]-Epibatidine binding to membrane fragments, cortex", "conditions": "read-out: Kd for [125I]-epibatidine, MT mice"}, "[11]": {"biological_target": "T4, α4β2*-nAChR binding sites (Mus musculus, UniProt O70174+Q9ERK7)", "T4 sequence (Q9ERK7 26-501)": "as the sequence (Q9ERK7 26-501) above", "T4 sequence (O70174 31-629)": "as the sequence (O70174 31-629) above", "assay": "[125I]-Epibatidine binding to membrane fragments, cortex", "conditions": "read-out: Kd for [125I]-epibatidine, WT mice"}, "[12]": {"biological_target": "α4β2*-nAChR binding sites", "assay": "[125I]-Epibatidine binding to membrane fragments, thalamus", "design": "species or system mouse", "conditions": "read-out: Kd for [125I]-epibatidine, HT mice"}, "[13]": {"biological_target": "T3, α4β2*-nAChR binding sites", "assay": "[125I]-Epibatidine binding to membrane fragments, thalamus", "conditions": "read-out: Kd for [125I]-epibatidine, MT mice"}, "[14]": {"biological_target": "T4, α4β2*-nAChR binding sites", "assay": "[125I]-Epibatidine binding to membrane fragments, thalamus", "conditions": "read-out: Kd for [125I]-epibatidine, WT mice"}, "[15]": {"test_system": "β2VL mice", "conditions": "male, mouse, in vivo, ip, 2 mg/kg"}, "[16]": {"test_system": "β2VL mice", "conditions": "mouse, in vivo, ip, 5 mg/kg"}, "[17]": {"conditions": "β2VL knock-in, homozygous mutant (MT)"}}, "note": "Values joined by “and” are separate entries in the source; they are usually repeats but may differ in a detail not shown here. Equal entries are not always repeated. Where two headings read alike, the source gives them in different places."}
{"compound": "CC(=O)OCC[N+](C)(C)C", "note": "[ACh, acetylcholine iodide]", "values": [{"measurement": "control ACh-stimulated 86Rb+ efflux", "setting": "[1]", "result": "5.64±1.43 and 3.35±0.47"}, {"measurement": "maximum ACh-stimulated [3H]-GABA release", "setting": "[2]", "result": "2.11±0.14"}, {"measurement": "decrease in EC50, ACh-stimulated [3H]-GABA release", "setting": "[3]", "result": "approximately 10 fold"}, {"measurement": "maximum ACh-stimulated [3H]-GABA release", "setting": "[3]", "result": "1.96±0.17 and 2.25±0.16"}, {"measurement": "reduction in maximal ACh-stimulated [3H]-GABA release", "setting": "[3]", "result": 0, "unit": "%"}, {"measurement": "decrease in maximal ACh-stimulated [3H]-GABA release", "setting": "[4]; α4S248F HT mice ref Teper et al.", "result": 60, "unit": "%"}, {"measurement": "decrease in maximal ACh-stimulated [3H]-GABA release", "setting": "[4]; α4S248F MT mice ref Teper et al.", "result": 80, "unit": "%"}, {"measurement": "maximum ACh-stimulated [3H]-GABA release", "setting": "[5]", "result": "2.64±0.13"}, {"measurement": "maximum ACh-stimulated [3H]-GABA release", "setting": "[6]", "result": "3.31±0.24 and 3.69±0.19"}, {"measurement": "reduction in maximal ACh-stimulated [3H]-GABA release", "setting": "[6]", "result": 20, "unit": "%"}, {"measurement": "α-CtxMII-sensitive maximal [3H]-dopamine release", "setting": "[7]", "result": "3.73±0.29"}, {"measurement": "decrease in the α-CtxMII sensitive [3H]-dopamine release", "setting": "[8]", "result": 23, "unit": "%"}, {"measurement": "α-CtxMII-sensitive maximal [3H]-dopamine release", "setting": "[8]", "result": "3.31±0.30"}, {"measurement": "α-CtxMII-sensitive maximal [3H]-dopamine release", "setting": "[8]; striatum, WT mice", "result": "4.82±0.30"}]}
{"compound": "Ic1ccc(C2CC3CCC2N3)cn1", "note": "(stereo not shown) [[^125I]-epibatidine]", "values": [{"measurement": "Kd", "setting": "[9]", "result": "120 ± 20", "unit": "pM"}, {"measurement": "Kd", "setting": "[10]", "result": "130 ± 20", "unit": "pM"}, {"measurement": "Kd", "setting": "[11]", "result": "150 ± 30", "unit": "pM"}, {"measurement": "Kd", "setting": "[12]", "result": "80 ± 10", "unit": "pM"}, {"measurement": "Kd", "setting": "[13]", "result": "110 ± 30", "unit": "pM"}, {"measurement": "Kd", "setting": "[14]", "result": "150 ± 60", "unit": "pM"}]}
{"compound": "CN1CCC[C@H]1c1cccnc1", "note": "[nicotine]", "values": [{"measurement": "mice displaying diagonal retrograde tail", "setting": "[15]", "result": "2/19"}, {"measurement": "mice displaying tonic forelimb digit splaying", "setting": "[15]", "result": "1/19"}, {"measurement": "mice displaying tonic forelimb extension", "setting": "[15]", "result": "1/19"}, {"measurement": "mice exhibiting forelimb clonus", "setting": "[15]", "result": "0/19"}, {"measurement": "post-injection latency for onset of diagonal retrograde tail", "setting": "[15]", "result": "31 ± 8", "unit": "s"}, {"measurement": "mice displaying diagonal retrograde tail", "setting": "[15]; [17]", "result": "19/19"}, {"measurement": "mice displaying tonic forelimb digit splaying", "setting": "[15]; [17]", "result": "16/19"}, {"measurement": "mice displaying tonic forelimb extension", "setting": "[15]; [17]", "result": "18/19"}, {"measurement": "mice exhibiting forelimb clonus", "setting": "[15]; [17]", "result": "12/19"}, {"measurement": "post-injection latency for onset of forelimb clonus", "setting": "[15]; [17]", "result": "59 ± 7", "unit": "s"}, {"measurement": "post-injection latency for onset of tonic digit splaying", "setting": "[15]; [17]", "result": "59 ± 6", "unit": "s"}, {"measurement": "post-injection latency for onset of tonic forelimb extension", "setting": "[15]; [17]", "result": "57 ± 5", "unit": "s"}, {"measurement": "interval from DAC to spike-wave seizure with tonic-clonic convulsions", "setting": "[16]", "result": "2 to 3", "unit": "min"}, {"measurement": "time to tonic-clonic convulsion with EEG spike-wave discharges post-injection", "setting": "[16]", "result": "3~4 min"}]}
